Data from ChEMBL document CHEMBL4411312, “Design, Synthesis, and Biological Evaluation of New 1-(Aryl-1 H-pyrrolyl)(phenyl)methyl-1 H-imidazole Derivatives as Antiprotozoal Agents” (J Med Chem, 2019).
Activity calls are given as the source filed them. No cut-off for these calls is given here.

Columns and labels:
[1] = Selectivity index, ratio of CC50 for rat L6 cels to IC50 for Trypanosoma brucei rhodesiense STIB900 trypomastigotes; type: toxicity; conditions: L6 cells, read-out: Ratio IC50
Leishmania donovani = assay: Antiprotozoal activity against Leishmania donovani MHOM/ET/67/L82 axenic amastigote after 72 hrs by inverted microscopic analysis; type: functional, organism-based; conditions: MHOM/ET/67/L82, 72 h
[2] = Selectivity index, ratio of CC50 for rat L6 cels to IC50 for erythrocytic stage of Plasmodium falciparum K1; type: toxicity; conditions: L6 cells, read-out: Ratio IC50
Trypanosoma cruzi [3] = assay: Antiprotozoal activity against Trypanosoma cruzi Tulahuen C2C4 amastigotes infected in rat L6 cells after 96 hrs by inverted microscopic analysis; type: functional, organism-based; conditions: Tulahuen C2C4, L6, 96 h
[4] = Cytotoxicity against rat L6 cels assessed as reduction in cell viability after 72 hrs by Alamar Blue dye-based fluorometric analysis; conditions: L6 cells
Plasmodium falciparum = assay: Antiprotozoal activity against erythrocytic stage of Plasmodium falciparum K1 after 48 hrs by [3H]- hypoxanthine incorporation assay; type: functional, organism-based
[5] = tested on: Trypanosoma brucei rhodesiense; assay: Antiprotozoal activity against Trypanosoma brucei rhodesiense STIB900 trypomastigotes after 72 hrs by Alamar Blue dye-based fluorometric analysis; type: functional, organism-based; conditions: STIB900, 72 h
[6] = Selectivity index, ratio of CC50 for rat L6 cels to IC50 for Leishmania donovani MHOM/ET/67/L82 axenic amastigote; type: toxicity; conditions: L6 cells, read-out: Ratio IC50
Trypanosoma cruzi [7] = assay: Potency index, ratio of benznidazole IC50 to compound IC50 for Trypanosoma cruzi Tulahuen C2C4 amastigotes infected in rat L6 cells after 96 hrs by inverted microscopic analysis; type: functional
[8] = Toxicity in BALB/c mouse infected with Trypanosoma cruzi CL Brener trypomastigotes assessed as loss of body weight at 25 mg/kg, ip bid treated for 4 consecutive days starting at 3 days post infection; type: organism-based; conditions: in vivo, 72 h
[9] = Toxicity in BALB/c mouse infected with Trypanosoma cruzi CL Brener trypomastigotes assessed as reduced mobility at 25 mg/kg, ip bid treated for 4 consecutive days starting at 3 days post infection; type: organism-based; conditions: in vivo, 72 h
[10] = molecular target: Sterol 14-alpha demethylase (Trypanosoma cruzi (strain CL Brener), UniProt Q7Z1V1); assay: Binding affinity to Trypanosoma cruzi CYP51 by UV-vis spectrophotometry
Cytochrome P450 1A2 = molecular target: T1, Cytochrome P450 1A2 (Homo sapiens, UniProt P05177); assay: Inhibition of human CYP1A2 in presence of NADPH by luciferase reporter gene assay; type: ADME
T1 sequence (P05177 whole entry): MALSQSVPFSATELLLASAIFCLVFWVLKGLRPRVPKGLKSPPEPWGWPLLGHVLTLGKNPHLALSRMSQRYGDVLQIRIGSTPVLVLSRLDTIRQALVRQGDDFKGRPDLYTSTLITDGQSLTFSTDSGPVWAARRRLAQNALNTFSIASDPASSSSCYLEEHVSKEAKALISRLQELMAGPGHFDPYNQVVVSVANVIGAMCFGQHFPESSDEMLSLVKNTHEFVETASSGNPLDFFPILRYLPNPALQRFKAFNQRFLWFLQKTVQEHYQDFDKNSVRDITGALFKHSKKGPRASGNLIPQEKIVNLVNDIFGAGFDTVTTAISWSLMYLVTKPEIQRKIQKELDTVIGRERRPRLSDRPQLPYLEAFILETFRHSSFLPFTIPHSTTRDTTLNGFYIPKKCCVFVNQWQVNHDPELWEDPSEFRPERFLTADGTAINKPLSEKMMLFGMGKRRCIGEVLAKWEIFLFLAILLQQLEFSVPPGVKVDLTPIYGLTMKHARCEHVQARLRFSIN

[11] = Toxicity in BALB/c mouse infected with Trypanosoma cruzi CL Brener trypomastigotes assessed as hunched posture at 25 mg/kg, ip bid treated for 4 consecutive days starting at 3 days post infection; type: organism-based; conditions: in vivo, 72 h
[12] = Toxicity in BALB/c mouse infected with Trypanosoma cruzi CL Brener trypomastigotes assessed as lack of grooming at 25 mg/kg, ip bid treated for 4 consecutive days starting at 3 days post infection; type: organism-based; conditions: in vivo, 72 h
Cytochrome P450 2D6 = Cytochrome P450 2D6 (Homo sapiens, UniProt P10635); assay: Inhibition of human CYP2D6 in presence of NADPH by luciferase reporter gene assay; type: ADME
Cytochrome P450 3A4 = Cytochrome P450 3A4 (Homo sapiens, UniProt P08684); assay: Inhibition of human CYP3A4 in presence of NADPH by luciferase reporter gene assay; type: ADME
Trypanosoma cruzi [13] = assay: Antiprotozoal activity against Trypanosoma cruzi CL Brener trypomastigotes infected in BALB/c mouse assessed as reduction in parasitemia at 25 mg/kg, ip bid treated for 4 consecutive days starting at 3 days post infection by bioluminescence assay relative to control; type: functional; design: scale not given: the % may be the effect or the level left
[14] = molecular target: Sterol 14-alpha demethylase (Trypanosoma cruzi (strain CL Brener)) (UniProt Q7Z1V1); assay: Binding affinity to Trypanosoma cruzi CYP51 at 5 to 10 uM by UV-vis spectrophotometry
CYP1A2 = molecular target: T2, CYP1A2 (Homo sapiens, UniProt P05177); assay: Safety index, ratio of IC50 for test compound to IC50 for furafylline for inhibition of human CYP1A2 in presence of NADPH by luciferase reporter gene assay; type: ADME; conditions: read-out: Ratio IC50
T2 sequence (P05177 whole entry): T1 sequence (P05177 whole entry)

Chain of Cytochrome P450 3A4 (P08684 whole entry): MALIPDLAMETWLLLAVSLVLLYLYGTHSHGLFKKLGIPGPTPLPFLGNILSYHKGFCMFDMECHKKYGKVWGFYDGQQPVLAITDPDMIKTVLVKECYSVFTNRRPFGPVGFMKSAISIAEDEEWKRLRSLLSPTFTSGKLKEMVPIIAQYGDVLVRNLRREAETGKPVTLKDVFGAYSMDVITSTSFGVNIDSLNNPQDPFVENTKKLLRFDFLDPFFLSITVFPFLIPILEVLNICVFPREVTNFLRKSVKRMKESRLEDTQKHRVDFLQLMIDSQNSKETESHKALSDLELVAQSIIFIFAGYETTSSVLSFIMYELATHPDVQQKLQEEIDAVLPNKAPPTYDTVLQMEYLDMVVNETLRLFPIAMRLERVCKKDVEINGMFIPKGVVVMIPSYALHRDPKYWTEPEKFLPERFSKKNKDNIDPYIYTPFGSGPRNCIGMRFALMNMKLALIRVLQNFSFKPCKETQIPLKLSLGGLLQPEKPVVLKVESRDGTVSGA
Chain of Sterol 14-alpha demethylase (Trypanosoma cruzi (strain CL Brener)) (Q7Z1V1 whole entry, looked up): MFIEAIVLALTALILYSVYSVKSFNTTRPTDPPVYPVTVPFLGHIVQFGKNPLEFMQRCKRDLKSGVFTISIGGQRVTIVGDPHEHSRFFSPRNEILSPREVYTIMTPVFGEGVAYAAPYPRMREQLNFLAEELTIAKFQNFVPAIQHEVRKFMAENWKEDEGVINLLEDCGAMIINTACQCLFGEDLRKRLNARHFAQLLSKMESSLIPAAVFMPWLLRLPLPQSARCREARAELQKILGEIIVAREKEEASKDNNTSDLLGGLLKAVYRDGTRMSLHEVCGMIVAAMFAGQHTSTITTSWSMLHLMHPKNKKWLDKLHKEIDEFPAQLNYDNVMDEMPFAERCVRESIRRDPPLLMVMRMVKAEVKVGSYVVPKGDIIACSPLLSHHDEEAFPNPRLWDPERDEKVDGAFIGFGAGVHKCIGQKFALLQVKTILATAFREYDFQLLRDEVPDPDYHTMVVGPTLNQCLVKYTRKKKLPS
Chain of Cytochrome P450 2D6 (P10635 whole entry): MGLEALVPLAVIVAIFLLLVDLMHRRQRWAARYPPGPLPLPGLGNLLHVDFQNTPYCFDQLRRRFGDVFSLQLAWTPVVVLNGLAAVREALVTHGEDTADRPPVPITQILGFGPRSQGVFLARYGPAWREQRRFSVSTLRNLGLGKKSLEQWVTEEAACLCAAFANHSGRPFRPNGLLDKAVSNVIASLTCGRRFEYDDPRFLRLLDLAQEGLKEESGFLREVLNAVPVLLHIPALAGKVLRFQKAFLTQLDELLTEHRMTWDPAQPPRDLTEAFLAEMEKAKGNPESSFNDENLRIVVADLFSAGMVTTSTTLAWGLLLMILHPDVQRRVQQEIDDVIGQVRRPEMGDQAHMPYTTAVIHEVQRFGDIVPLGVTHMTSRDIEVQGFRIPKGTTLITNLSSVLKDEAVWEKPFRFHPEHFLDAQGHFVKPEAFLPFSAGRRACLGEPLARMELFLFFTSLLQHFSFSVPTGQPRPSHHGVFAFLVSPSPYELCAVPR
Chain of Sterol 14-alpha demethylase (Q7Z1V1 whole entry): as the sequence (Q7Z1V1 whole entry, looked up) above

Compound	selectivity ratio [1]	IC50 (Leishmania donovani) [µM]	selectivity ratio [2]	IC50 (Trypanosoma cruzi [3]) [µM]	CC50 at 72 h [4] [µM]	IC50 (Plasmodium falciparum) [µM]	IC50 [5] [µM]	selectivity ratio [6]	Ratio IC50 (Trypanosoma cruzi [7])	Activity [8]	Activity [9]	Kd [10] [µM]	IC50 (Cytochrome P450 1A2) [µM]	Activity [11]	Activity [12]	IC50 (Cytochrome P450 2D6) [µM]	IC50 (Cytochrome P450 3A4) [µM]	Activity (Trypanosoma cruzi [13]) [%]	Activity [14]	selectivity ratio (CYP1A2)
O=[N+]([O-])c1ccc(-n2ccc(C(c3ccccc3)n3ccnc3)c2)cc1 (stereo not drawn)	4	31.1	12	10.2	60.4	4.99	14.5	2	–	–	–	–	–	–	–	–	–	–	–	–
O=[N+]([O-])c1ccc(-n2ccc(C(c3ccc(Cl)cc3)n3ccnc3)c2)cc1 (stereo not drawn)	2	25.2	18	6.18	82.4	4.57	40.6	3	–	–	–	–	–	–	–	–	–	–	–	–
Clc1ccc(-c2cc(C(c3ccc(Cl)cc3)n3ccnc3)c[nH]2)cc1 (stereo not drawn)	–	3.01	9	0.003	6.65	0.78	7.39	2	330 - 825	Non-Toxic	Non-Toxic	5.5	0.4	Non-Toxic	Non-Toxic	4	1.4	99.5	–	–
CS(=O)(=O)c1ccc(-c2c[nH]cc2C(c2ccc(Cl)cc2Cl)n2ccnc2)cc1 (stereo not drawn)	2	10.2	52	0.029	68	1.3	33	7	57	–	–	–	–	–	–	–	–	–	–	–
Cn1cc(C(c2ccc(Cl)cc2)n2ccnc2)cc1-c1ccc(Cl)cc1 (stereo not drawn)	–	5.7	9	0.003	12.1	1.41	40	2	330 - 825	Non-Toxic	Non-Toxic	–	2	Non-Toxic	Non-Toxic	3	1.1	99.4	Active	–
O=[N+]([O-])c1ccc(C(c2ccn(-c3ccc([N+](=O)[O-])cc3)c2)n2ccnc2)cc1 (stereo not drawn)	13	17.7	68	3.6	159	2.33	11.8	9	–	–	–	–	–	–	–	–	–	–	–	–
FC(F)(F)c1ccc(-n2ccc(C(c3ccc(Cl)cc3)n3ccnc3)c2)cc1 (stereo not drawn)	1	21.3	22	> 74.7	40.1	1.81	31.1	2	–	–	–	–	–	–	–	–	–	–	–	–
C=CCn1cc(C(c2ccc(Cl)cc2)n2ccnc2)cc1-c1ccc(Cl)cc1 (stereo not drawn)	–	2.16	12	0.002	7.76	0.63	38.7	4	330 - 825	–	–	–	1.2	–	–	2	0.9	–	Active	–
Clc1ccc(-c2c[nH]cc2C(c2ccc(Cl)cc2Cl)n2ccnc2)cc1 (racemic)	–	–	–	0.035	–	–	–	–	–	–	–	–	7	–	–	1.3	0.8	–	–	3
N#Cc1ccc(C(c2ccn(-c3ccc(Cl)cc3)c2)n2ccnc2)cc1 (stereo not drawn)	1	30.4	19	3.9	42.4	2.18	35.7	1	–	–	–	–	–	–	–	–	–	–	–	–
Clc1ccc(C(c2c[nH]cc2-c2ccc3ccccc3c2)n2ccnc2)c(Cl)c1 (stereo not drawn)	–	6.41	19	0.018	6.54	0.34	15.6	1	–	–	–	–	–	–	–	–	–	–	Active	–
